Data published in ChEMBL document CHEMBL1201862, “PubChem BioAssay data set” (2004).
Activity calls are given as the source filed them.

Columns and labels:
[1] = inhibitors of HIV Env-driven cell fusion, dose response, cherry-pick (AID 652057); type: functional, cell-based
[2] = molecular target: T1, Polyadenylate-binding protein 1 (Homo sapiens, UniProt P11940); experiment: PABP1 MLLE–PAM2 binding inhibitor potency, dose response, biochemical, fluorescence polarization, FITC-PAM2 peptide (AID 602259); type: functional; conditions: read-out: IC50_Mean
Vero = experiment: cells; type: functional; conditions: Chlorocebus sabaeus
[3] = ZM109 Env clade C HIV-1 fusion inhibitors, dose response, HeLa effector, CEM target cells, luciferase, cherry-pick (AID 652058); type: functional, cell-based
[4] = molecular target: Induced myeloid leukemia cell differentiation protein Mcl-1 (Homo sapiens, UniProt Q07820); type: functional
HEK293 [5] = experiment: cells; conditions: Homo sapiens
[6] = inhibitors of clade B AD8 Env fusion, dose response, cell-based, cherry-pick (AID 652062); type: functional;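 further: luciferase signal from cell-cell fusion driven by HIV-1 clade B AD8 Env; potency is for inhibitors of fusion seen as a drop in luminescence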
HEK293 [7] = experiment: cells; conditions: Homo sapiens; remark: listed apart in the source
[8] = CEM21 lymphoblast cell cytotoxicity, dose response, cytotoxicity control for viral fusion inhibitor project, CellTiter-Glo luminescence, cherry-picked (AID 652042); type: functional, cell-based;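 further: potency for signal decrease meaning cytotoxicity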
[9] = off-target signal loss in HeLa-CEM21 co-culture – HeLa F-luc CTL cells, cherry-picked, counter-screen for HIV-1 Env fusion inhibitor project, dose response (AID 652040); type: functional, cell-based;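 further: potency for signal decrease marking cytotoxic or nonspecific inhibition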
[10] = molecular target: T1, Polyadenylate-binding protein 1; experiment: PABP1 MLLE–PAM2 interaction inhibitors, dose response, miRNA deadenylation inhibitor project, biochemical, fluorescence polarization, Cy5-PAM2 peptide, secondary (AID 602260); type: functional; conditions: read-out: IC50_Mean
Beta-lactamase [11] = molecular target: Beta-lactamase (Salmonella choleraesuis (strain SC-B67), UniProt Q5J463); experiment: Epi-absorbance-based counterscreen for selective VIM-2 inhibitors: dose response biochemical high throughput screening assay to identify inhibitors of TEM-1 serine-beta-lactamase.
Beta-lactamase [12] = molecular target: T2, Beta-lactamase (Pseudomonas aeruginosa, UniProt Q79MP6); experiment: IMP-1 metallo-beta-lactamase inhibitors, dose response, selectivity assay for VIM-2 inhibitor project, biochemical, epi-absorbance (AID 1920)
Beta-lactamase [13] = molecular target: T2, Beta-lactamase; experiment: […] counterscreen for selective VIM-2 inhibitors: dose response biochemical high throughput screening assay to identify inhibitors of IMP-1 metallo-beta-lactamase.
[14] = molecular target: T3, Microphthalmia-associated transcription factor (Homo sapiens, UniProt O75030); experiment: TRPM1 promoter luciferase signal decrease, dose response, MITF inhibitor project, cell-based, SK-MEL-5, cherry-picked, set 3 (AID 493073); type: functional
T3 sequence (O75030 whole entry): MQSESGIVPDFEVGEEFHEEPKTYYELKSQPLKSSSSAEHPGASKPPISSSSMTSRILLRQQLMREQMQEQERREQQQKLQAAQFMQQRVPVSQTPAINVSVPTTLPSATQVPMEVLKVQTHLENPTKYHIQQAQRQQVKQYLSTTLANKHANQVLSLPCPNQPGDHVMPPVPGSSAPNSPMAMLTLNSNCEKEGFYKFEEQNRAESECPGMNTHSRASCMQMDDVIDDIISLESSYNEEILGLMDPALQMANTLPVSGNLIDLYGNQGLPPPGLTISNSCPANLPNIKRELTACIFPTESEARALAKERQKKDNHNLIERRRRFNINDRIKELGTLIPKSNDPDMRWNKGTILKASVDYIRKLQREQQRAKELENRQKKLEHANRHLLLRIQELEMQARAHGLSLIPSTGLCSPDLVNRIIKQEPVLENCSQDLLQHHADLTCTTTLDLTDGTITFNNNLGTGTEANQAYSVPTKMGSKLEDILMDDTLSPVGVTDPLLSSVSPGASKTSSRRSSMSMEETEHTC

[15] = A375 melanoma cell cytotoxicity, dose response, counter-screen for MITF inhibitor project, CellTiter-Glo luminescence, dry powder, set 2 (AID 624489); type: functional, cell-based; conditions: A-375;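 further: actives are compounds lowering A375 viability meaning general cytotoxicity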
INS1 = experiment: beta cell apoptosis inhibitors, cytokine rescue, dose response, luminescence, retest (AID 449756); type: functional, cell-based; conditions: Rattus norvegicus;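 further: cell death triggered by IL-1 beta plus TNF-alpha plus IFN-gamma mixture; protective hits raise ATP signal compared with cytokine alone wells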
[16] = molecular target: Disintegrin and metalloproteinase domain-containing protein 17 (Homo sapiens, UniProt P78536); experiment: exosite inhibitors of ADAM17, dose response, biochemical (AID 743260)
[17] = ADAM10 protease inhibitors, dose response, selectivity assay for ADAM17 exosite inhibitor project, biochemical, FRET peptide substrate, recombinant human ADAM10 (AID 743259);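 further: ADAM10 enzyme cleaving a FRET peptide substrate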
[18] = molecular target: T4, Fructose-bisphosphate aldolase (Mycobacterium tuberculosis, UniProt P9WQA3); experiment: Fluorescence-based biochemical high throughput dose response assay for inhibitors of the fructose-bisphosphate aldolase (FBA) of M. tuberculosis.; type: functional
T4 sequence (P9WQA3 whole entry): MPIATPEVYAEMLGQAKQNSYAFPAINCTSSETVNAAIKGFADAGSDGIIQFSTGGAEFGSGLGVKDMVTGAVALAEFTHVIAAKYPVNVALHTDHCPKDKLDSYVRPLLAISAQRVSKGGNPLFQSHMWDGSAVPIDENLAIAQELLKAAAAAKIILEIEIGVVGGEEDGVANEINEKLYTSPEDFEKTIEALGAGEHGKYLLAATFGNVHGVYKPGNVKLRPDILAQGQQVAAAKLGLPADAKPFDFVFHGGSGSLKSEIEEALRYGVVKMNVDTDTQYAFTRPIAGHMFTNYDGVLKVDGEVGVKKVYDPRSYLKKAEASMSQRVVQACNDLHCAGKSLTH

[19] = molecular target: T5, Heat shock factor protein 1 (Mus musculus, UniProt P38532); experiment: inhibition of MG132-induced HSE-luciferase signal, confirmation, cell-based, NIH3T3, luminescence, dose retest (AID 2382); type: functional;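 further: NIH3T3 fibroblasts with HSF1-driven luciferase reporter stressed by proteasome inhibitor MG132; luminescence from HSF1-driven luciferase expression after 8 hours of MG132 stress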
T5 sequence (P38532 whole entry): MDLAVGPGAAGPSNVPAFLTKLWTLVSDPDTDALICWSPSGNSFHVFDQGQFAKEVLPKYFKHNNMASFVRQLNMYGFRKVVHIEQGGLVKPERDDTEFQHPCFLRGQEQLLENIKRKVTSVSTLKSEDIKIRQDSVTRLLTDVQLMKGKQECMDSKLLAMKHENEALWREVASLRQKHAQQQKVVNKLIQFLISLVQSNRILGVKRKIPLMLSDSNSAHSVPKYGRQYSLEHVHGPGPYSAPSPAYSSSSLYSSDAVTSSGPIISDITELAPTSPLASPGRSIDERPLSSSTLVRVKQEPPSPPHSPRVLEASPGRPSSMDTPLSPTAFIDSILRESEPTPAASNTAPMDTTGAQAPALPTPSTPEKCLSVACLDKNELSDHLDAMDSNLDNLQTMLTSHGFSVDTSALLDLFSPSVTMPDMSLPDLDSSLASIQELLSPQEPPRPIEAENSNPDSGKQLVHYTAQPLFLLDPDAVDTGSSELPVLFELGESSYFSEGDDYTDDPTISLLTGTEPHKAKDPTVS

Beta-galactosidase = Beta-galactosidase (Escherichia coli, UniProt Q8VNN2); experiment: Dose response counterscreen for EBI2 assay utilizing the enzyme, b-galactosidase.; type: functional
[20] = HeLa cell cytotoxicity, dose response, cytotoxicity control for MgcRacGAP inhibitor project (AID 624300); type: functional
Large T antigen = Large T antigen (Simian virus 40, UniProt P03070); type: functional, Betapolyomavirus macacae;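 further: Confirmatory-stage PubChem screen for compounds that inhibit SV40 T antigen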
[21] = molecular target: T6, Rac GTPase-activating protein 1 (Homo sapiens, UniProt Q9H0H5); experiment: MgcRacGAP GTPase-activating activity inhibitors, confirmation, biochemical, ADP Hunter fluorescence, primary and confirmatory (AID 624330); type: functional
T6 sequence (Q9H0H5 whole entry): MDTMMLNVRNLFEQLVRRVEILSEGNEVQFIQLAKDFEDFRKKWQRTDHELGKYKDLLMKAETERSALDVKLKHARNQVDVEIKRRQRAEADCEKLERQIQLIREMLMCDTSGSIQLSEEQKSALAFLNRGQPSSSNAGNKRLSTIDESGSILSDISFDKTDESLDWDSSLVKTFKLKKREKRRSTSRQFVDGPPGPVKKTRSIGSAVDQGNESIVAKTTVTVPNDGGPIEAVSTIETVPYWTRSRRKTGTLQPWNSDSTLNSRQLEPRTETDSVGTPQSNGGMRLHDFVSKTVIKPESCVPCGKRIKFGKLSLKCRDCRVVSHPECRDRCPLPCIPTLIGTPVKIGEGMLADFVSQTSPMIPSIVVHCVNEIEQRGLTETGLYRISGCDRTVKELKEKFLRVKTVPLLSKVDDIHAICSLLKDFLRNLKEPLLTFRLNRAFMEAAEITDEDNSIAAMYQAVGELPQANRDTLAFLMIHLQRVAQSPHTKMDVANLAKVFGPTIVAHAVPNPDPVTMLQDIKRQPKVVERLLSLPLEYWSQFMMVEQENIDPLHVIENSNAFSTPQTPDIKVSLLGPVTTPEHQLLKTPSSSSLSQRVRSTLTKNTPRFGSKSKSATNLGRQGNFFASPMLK

[22] = molecular target: T7, High affinity choline transporter 1 (Homo sapiens, UniProt Q9GZV3); experiment: CHT inhibitors, dose response, cell-based, 5-point CRC, membrane potential dye (AID 504840); type: functional
T7 sequence (Q9GZV3 whole entry): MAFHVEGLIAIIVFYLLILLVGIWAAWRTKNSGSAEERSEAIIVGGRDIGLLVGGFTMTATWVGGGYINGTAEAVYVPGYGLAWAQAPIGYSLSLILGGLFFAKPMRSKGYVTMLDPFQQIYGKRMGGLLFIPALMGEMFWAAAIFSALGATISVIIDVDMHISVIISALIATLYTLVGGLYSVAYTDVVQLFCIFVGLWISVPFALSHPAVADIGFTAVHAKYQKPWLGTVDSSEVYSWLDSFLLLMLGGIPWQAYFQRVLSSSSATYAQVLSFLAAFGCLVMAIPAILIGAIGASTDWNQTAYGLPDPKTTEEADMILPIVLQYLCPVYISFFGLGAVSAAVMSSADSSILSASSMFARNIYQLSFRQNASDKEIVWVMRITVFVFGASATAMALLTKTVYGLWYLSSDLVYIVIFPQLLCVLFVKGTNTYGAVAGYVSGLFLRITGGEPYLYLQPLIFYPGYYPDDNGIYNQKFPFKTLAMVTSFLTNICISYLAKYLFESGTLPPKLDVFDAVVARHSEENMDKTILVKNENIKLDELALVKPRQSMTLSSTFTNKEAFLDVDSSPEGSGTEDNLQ

[23] = Luminescence Cell-Based Dose Confirmation HTS to Identify Inhibitors of Platelet Dense Granule Release. [Related pubchem assays: 1663 (Primary HTS), 1678 (Summary of Project)]; type: functional
[24] = molecular target: Luciferin 4-monooxygenase (Photinus pyralis, UniProt P08659); experiment: firefly luciferase enzyme inhibitors, dose response, biochemical, luminescence (AID 1891)
Chain of Luciferin 4-monooxygenase (P08659 whole entry): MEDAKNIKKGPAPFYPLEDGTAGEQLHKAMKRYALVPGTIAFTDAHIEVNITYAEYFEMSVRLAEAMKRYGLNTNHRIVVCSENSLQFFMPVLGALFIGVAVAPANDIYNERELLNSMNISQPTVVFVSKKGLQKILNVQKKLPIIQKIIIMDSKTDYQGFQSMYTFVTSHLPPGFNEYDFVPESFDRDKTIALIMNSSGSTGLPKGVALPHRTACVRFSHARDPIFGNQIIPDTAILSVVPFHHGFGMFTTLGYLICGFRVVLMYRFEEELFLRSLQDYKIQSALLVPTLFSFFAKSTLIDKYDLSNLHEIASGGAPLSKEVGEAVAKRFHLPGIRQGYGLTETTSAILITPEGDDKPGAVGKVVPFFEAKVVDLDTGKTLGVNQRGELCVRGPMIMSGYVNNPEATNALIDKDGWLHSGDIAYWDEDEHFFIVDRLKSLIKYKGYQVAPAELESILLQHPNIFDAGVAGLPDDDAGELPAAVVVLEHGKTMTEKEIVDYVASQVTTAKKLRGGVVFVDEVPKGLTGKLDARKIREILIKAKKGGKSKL

Chain of Beta-lactamase (Salmonella choleraesuis (strain SC-B67), UniProt Q5J463) (Q5J463 whole entry): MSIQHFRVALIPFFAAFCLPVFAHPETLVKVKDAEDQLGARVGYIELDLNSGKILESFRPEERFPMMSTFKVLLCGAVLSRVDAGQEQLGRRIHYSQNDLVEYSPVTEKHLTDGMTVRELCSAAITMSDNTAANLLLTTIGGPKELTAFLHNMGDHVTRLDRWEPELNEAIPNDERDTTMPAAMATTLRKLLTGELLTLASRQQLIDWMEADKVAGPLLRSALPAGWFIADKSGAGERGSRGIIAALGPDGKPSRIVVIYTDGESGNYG
Chain of Disintegrin and metalloproteinase domain-containing protein 17 (P78536 whole entry, the tested form may be a part): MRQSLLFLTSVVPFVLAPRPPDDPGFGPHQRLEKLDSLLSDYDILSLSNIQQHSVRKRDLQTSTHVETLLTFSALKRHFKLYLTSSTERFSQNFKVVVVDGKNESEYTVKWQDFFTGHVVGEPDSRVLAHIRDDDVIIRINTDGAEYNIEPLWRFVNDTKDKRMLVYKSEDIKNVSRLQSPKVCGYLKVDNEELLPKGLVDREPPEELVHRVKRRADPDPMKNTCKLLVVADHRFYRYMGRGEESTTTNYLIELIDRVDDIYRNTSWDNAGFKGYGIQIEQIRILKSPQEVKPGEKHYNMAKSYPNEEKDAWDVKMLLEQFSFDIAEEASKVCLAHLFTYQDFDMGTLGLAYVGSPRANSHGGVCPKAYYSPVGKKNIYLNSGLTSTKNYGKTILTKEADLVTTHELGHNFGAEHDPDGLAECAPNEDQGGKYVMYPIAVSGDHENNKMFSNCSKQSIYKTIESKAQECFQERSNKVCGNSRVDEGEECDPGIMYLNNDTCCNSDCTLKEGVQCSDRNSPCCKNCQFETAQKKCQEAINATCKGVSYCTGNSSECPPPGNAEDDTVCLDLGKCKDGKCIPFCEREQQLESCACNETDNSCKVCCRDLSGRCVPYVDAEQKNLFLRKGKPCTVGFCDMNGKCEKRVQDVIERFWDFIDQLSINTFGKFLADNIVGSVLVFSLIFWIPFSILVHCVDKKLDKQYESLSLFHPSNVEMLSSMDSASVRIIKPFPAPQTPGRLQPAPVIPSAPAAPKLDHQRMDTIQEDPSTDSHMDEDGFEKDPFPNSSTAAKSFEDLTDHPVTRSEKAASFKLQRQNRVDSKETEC
T2 sequence (Q79MP6 whole entry): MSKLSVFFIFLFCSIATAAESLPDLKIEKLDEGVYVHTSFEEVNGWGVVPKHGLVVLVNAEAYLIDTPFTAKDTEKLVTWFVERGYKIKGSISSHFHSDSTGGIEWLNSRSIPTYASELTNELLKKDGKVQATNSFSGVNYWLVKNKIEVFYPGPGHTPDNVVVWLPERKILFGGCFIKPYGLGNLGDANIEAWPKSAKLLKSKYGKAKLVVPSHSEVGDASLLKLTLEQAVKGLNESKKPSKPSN
Chain of Beta-galactosidase (Q8VNN2 whole entry): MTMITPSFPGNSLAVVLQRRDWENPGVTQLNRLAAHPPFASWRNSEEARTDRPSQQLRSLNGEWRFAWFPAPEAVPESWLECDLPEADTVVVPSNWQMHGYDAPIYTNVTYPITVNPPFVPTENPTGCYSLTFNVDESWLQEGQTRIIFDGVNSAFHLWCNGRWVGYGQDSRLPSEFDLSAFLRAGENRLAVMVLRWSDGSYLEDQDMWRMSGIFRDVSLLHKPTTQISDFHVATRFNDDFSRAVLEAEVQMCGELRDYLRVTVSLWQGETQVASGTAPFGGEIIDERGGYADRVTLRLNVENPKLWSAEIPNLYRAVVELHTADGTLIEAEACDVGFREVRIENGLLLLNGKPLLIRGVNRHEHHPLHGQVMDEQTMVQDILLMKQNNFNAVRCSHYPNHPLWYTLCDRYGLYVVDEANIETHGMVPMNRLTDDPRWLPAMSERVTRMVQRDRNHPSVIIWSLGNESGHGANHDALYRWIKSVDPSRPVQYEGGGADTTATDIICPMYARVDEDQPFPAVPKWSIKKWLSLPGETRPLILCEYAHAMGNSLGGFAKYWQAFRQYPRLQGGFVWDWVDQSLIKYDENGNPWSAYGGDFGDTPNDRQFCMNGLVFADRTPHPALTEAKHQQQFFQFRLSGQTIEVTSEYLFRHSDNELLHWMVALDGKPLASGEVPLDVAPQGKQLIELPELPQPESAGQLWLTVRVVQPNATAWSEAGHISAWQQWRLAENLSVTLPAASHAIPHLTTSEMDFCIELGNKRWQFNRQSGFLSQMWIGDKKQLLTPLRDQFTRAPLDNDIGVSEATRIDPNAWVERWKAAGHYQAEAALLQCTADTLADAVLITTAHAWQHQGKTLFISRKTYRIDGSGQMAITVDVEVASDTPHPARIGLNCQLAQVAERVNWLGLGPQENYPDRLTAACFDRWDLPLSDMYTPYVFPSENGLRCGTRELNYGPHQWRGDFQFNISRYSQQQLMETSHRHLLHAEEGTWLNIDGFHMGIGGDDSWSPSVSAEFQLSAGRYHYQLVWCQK
T1 sequence (P11940 whole entry): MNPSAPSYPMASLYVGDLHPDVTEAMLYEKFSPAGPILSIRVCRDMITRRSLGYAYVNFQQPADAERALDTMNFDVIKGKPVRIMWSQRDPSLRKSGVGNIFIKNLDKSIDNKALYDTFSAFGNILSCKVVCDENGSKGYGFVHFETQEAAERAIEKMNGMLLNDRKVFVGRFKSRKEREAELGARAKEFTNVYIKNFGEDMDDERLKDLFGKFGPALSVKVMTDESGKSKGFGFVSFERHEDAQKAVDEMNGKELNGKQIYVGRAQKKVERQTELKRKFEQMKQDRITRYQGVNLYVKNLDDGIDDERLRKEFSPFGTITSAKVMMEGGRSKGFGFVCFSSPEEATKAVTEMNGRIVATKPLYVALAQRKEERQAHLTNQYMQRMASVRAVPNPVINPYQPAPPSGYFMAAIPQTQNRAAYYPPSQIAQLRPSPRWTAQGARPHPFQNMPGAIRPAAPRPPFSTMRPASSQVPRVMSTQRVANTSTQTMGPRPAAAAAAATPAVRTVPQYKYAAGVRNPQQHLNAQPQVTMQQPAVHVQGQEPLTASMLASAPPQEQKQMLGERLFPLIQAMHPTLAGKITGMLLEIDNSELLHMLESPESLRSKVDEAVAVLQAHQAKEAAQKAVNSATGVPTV
Chain of Induced myeloid leukemia cell differentiation protein Mcl-1 (Q07820 whole entry): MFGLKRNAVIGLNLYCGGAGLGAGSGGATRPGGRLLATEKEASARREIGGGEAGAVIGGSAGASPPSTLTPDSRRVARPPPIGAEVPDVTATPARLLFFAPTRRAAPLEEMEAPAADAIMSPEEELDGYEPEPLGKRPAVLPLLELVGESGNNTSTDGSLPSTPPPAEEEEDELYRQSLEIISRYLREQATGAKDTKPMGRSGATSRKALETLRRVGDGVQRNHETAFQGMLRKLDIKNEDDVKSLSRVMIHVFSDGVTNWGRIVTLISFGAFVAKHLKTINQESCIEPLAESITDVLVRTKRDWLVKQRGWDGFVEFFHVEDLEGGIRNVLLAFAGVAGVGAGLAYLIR
Chain of Large T antigen (P03070 whole entry): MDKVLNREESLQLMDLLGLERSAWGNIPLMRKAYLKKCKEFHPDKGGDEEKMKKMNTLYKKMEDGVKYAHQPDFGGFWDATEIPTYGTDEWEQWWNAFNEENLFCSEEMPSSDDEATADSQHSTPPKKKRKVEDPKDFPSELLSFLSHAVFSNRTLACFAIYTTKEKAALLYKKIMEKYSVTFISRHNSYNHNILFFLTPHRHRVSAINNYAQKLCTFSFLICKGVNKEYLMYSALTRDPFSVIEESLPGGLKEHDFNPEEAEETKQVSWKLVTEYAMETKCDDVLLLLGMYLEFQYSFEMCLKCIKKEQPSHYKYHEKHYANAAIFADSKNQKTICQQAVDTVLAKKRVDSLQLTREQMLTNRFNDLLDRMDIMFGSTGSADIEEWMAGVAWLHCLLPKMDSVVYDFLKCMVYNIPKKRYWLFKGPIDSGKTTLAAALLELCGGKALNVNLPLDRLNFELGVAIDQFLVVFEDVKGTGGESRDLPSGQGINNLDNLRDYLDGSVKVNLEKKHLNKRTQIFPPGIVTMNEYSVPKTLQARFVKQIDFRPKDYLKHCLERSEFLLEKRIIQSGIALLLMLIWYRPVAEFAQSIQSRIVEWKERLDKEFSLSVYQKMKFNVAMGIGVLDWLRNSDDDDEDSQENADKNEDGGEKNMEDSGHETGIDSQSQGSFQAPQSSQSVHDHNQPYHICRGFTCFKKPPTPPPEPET

Structure (SMILES): CCOC(=O)c1c(CSc2ccc(C)cc2)n(C)c2cc(Br)c(O)c(CN(C)C)c12
- AC50 [1]: 0.342 µM (active)
- IC50 [2]: > 66 µM (inactive)
- CC50 (Vero): > 25 µM (active)
- AC50 [3]: 0.465 µM (active)
- IC50 [4]: 2.7 µM (active)
- EC50 (HEK293 [5]): > 59.6 µM (inactive)
- AC50 [6]: 1.32 µM (active)
- EC50 (HEK293 [7]): > 59.6 µM (inactive)
- AC50 [8]: 58.8 µM (active)
- AC50 [9]: 0.452 µM (active)
- IC50 [10]: > 66 µM (inactive)

Structure (SMILES): O=C(O)C1Sc2[nH]c(=O)sc2C2c3cc(Cl)ccc3OC(=O)C12 (stereo not given)
- IC50 (Beta-lactamase [11]): > 59.6 µM (inactive)
- IC50 (Beta-lactamase [12]): > 59.6 µM (inactive)
- IC50 (Beta-lactamase [13]): > 59.6 µM (inactive)

Structure (SMILES): O=C(CSc1nnc(NC(=O)c2cccc(F)c2)s1)NCc1ccco1
- IC50 (Beta-lactamase [11]): > 59.6 µM (inactive)
- IC50 (Beta-lactamase [12]): > 59.6 µM (inactive)
- IC50 (Beta-lactamase [13]): > 59.6 µM (inactive)

Structure (SMILES): CN1CCN(C2=C(NS(=O)(=O)c3cccs3)C(=O)c3ccccc3C2=O)CC1
- AC50 [14]: 6.98 µM (active)
- AC50 [15]: > 70 µM (inactive)
- AC50 (INS1): 5.87 µM (active)

Structure (SMILES): C=CCn1c(-c2csc3c2CCC(C)C3)n[nH]c1=S (stereo not given)
- IC50 [16]: > 69.4 µM (inactive)

Structure (SMILES): C=CCn1c(S)nnc1-c1csc2c1CCC(C)C2 (stereo not given)
- IC50 [17]: > 69.4 µM (inactive)

Structure (SMILES): CCc1cc(=O)oc2c(C)c(OCC(=O)N3CCC[C@@H]3C(=O)O)ccc12
- IC50 (Beta-lactamase [11]): > 59.6 µM (inactive)
- IC50 (Beta-lactamase [12]): > 59.6 µM (inactive)
- IC50 [18]: 1.65 µM (active)
- IC50 (Beta-lactamase [13]): > 59.6 µM (inactive)

Structure (SMILES): CCOc1ccc(NC(S)=Nc2ccc(OC(F)(F)F)cc2)cc1
- EC50 [19]: > 195 µM (not active)
- IC50 (Beta-galactosidase): > 80 µM (inactive)

Structure (SMILES): O=C1CCCCC1C(Nc1ccc(Cl)cc1)c1ccccc1 (stereo not given)
- IC50 [17]: 34.3 µM (inactive)
- IC50 [16]: > 69.5 µM (inactive)

Structure (SMILES): O=C1ON=C(c2ccccc2)/C1=C/c1ccc(O)c(O)c1
- CC50 [20]: 73.7 µM (active)
- IC50 (Large T antigen): 5.22 µM (active)
- IC50 [21]: 60 µM (active)
- IC50 [22]: 4.37 µM (active)

Structure (SMILES): CCOc1cc(/C=C2\C(=O)ON=C2c2ccccc2)cc(Br)c1O
- CC50 [20]: 100 µM (active)
- CC50 (Vero): 17.8 µM (active)
- IC50 [21]: 61.2 µM (active)

Structure (SMILES): COc1ccc(N2CCC(CN=C(S)Nc3cccc(OC)c3)C2)cc1 (stereo not given)
- IC50 [17]: > 69.5 µM (inactive)

Structure (SMILES): COc1ccc(N2CCC(CNC(=S)Nc3cccc(OC)c3)C2)cc1 (stereo not given)
- IC50 [16]: > 69.5 µM (inactive)

Structure (SMILES): O=C(c1cc2cc(Cl)ccc2[nH]1)N1CCN(c2ccc(F)cc2)CC1
- IC50 (Beta-galactosidase): > 80 µM (inactive)

Structure (SMILES): COc1ccc(N2CCN(C(=O)c3cc(=O)c4cc(Cl)ccc4o3)CC2)cc1
- IC50 (Beta-galactosidase): > 80 µM (inactive)

Structure (SMILES): O=C(Nc1ccccc1C(=O)N/N=C/c1ccc(O)cc1)c1ccccc1
- CC50 [20]: 39.5 µM (active)
- EC50 [23]: 3.65 µM (active)
- IC50 [21]: 220 µM (active)
- EC50 [24]: 0.184 µM (active)
